In patent publication US20260365670A1, “EGFR INHIBITORS AND USES THEREOF” (DIZAL (JIANGSU) PHARMACEUTICAL CO., LTD., priority 2022, published 2026):
Read-outs that look alike come from different tables or passages of the source.

Experiments:
EGFR[T790M/C797S/L858R] = target: T1, EGFR[T790M/C797S/L858R] (Homo sapiens, UniProt P00533, C797S/L858R/T790M); assay: Inhibition of EGFR[T790M/C797S/L858R] biochemical enzymatic activity (HTRF); conditions: EGFR T790M-C797S-L858R, 1 mM ATP, 1 h, room temperature, read-out: IC50 (nM) @T790M- C797S - L858R
T1 construct: purchased Carna Bio
Outline: (§1)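 For IC50 determination by four-parameter logistic fit, EDTA-quenched 1 h room-temperature reactions (1 mM ATP, 1 μM TK Substrate-biotin) were read by HTRF. The 665/615 nm emission ratio after 320 nm excitation served as the activity signal.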

EGFR (d746-750 C797S) = target: T2, EGFR (d746-750 C797S) (Homo sapiens, UniProt P00533, C797S/DEL746-750); assay: Inhibition of EGFR (d746-750 C797S) biochemical enzymatic activity (HTRF); conditions: EGFR Del19-C797S, 1 mM ATP, 1 h, room temperature, read-out: IC50 (nM) @Del19-C797S
T2 construct: purchased signalchem
Outline: as §1

EGFR L858R = target: T3, EGFR L858R (Homo sapiens, UniProt P00533, L858R); assay: Inhibition of EGFR L858R biochemical enzymatic activity (HTRF); conditions: 1 mM ATP, 1 h, room temperature, read-out: IC50 (nM) @L858R
T3 construct: purchased Carna Bio
Outline: as §1

EGFR wild type = target: T4, EGFR wild type (Homo sapiens, UniProt P00533); assay: Inhibition of EGFR wild type biochemical enzymatic activity (HTRF); conditions: EGFR WT, 1 mM ATP, 1 h, room temperature, read-out: IC50 (nM) @WT
T4 construct: purchased Carna Bio
Outline: as §1

[1] = target: T5, EGFR[T790M/C797S/d746-750] (Homo sapiens, UniProt P00533, C797S/DEL746-750/T790M); assay: Inhibition of EGFR[T790M/C797S/d746-750] biochemical enzymatic activity (HTRF); conditions: EGFR T790M-C797S-Del19, 1 mM ATP, 1 h, room temperature, read-out: IC50 (nM) @T790M - C797S - Del19
T5 construct: purchased Carna Bio
Outline: as §1

PC-9 = assay: Cell proliferation assay, PC-9 cells (CellTiter-Glo, 72 hours); assay type: cell-based; conditions: PC9 cells, CellTiter-Glo, read-out: PC9 GI50
Outline: (§2)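 Ba/F3 cells (5000/well) and PC-9 cells (500/well, RPMI1640 with 10% FBS) were plated overnight and then dosed with a compound concentration series. Viable cells were read at day 0 (G0) and after treatment (G3). GI50 came from curve fits of G0-corrected proliferation relative to DMSO.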

[2] = tested on: Ba/F3 cells expressing EGFR mutations; assay: Cell proliferation assay, Ba/F3 cells expressing EGFR mutations (CellTiter-Glo, 72 hours); assay type: cell-based; conditions: CellTiter-Glo
Outline: as §2

EGFR L858R/T790M = target: T6, EGFR L858R/T790M (Homo sapiens, UniProt P00533, L858R/T790M); assay: Inhibition of EGFR L858R/T790M biochemical enzymatic activity (HTRF); conditions: EGFR L858R-T790M, 1 mM ATP, 1 h, room temperature, read-out: IC50 (nM) @L858R-T790M
T6 construct: purchased Carna Bio
Outline: as §1

EGFR (C797S L858R) = target: T7, EGFR (C797S L858R) (Homo sapiens, UniProt P00533, C797S/L858R); assay: Inhibition of EGFR (C797S L858R) biochemical enzymatic activity (HTRF); conditions: EGFR L858-C797S, 1 mM ATP, 1 h, room temperature, read-out: IC50 (nM) @L858-C797S
T7 construct: purchased signalchem
Outline: as §1

A-431 = assay: Cell proliferation GI50, A-431 cells (Table 6); assay type: cell-based
EGFR Exon19Del = target: T8, EGFR Exon19Del (Homo sapiens, UniProt P00533, DEL746-750); assay: Inhibition of EGFR Exon19Del biochemical enzymatic activity (HTRF); conditions: EGFR Del19, 1 mM ATP, 1 h, room temperature, read-out: IC50 @Del19
T8 construct: purchased Carna Bio
Outline: as §1

EGFR Exon19Del/T790M = target: T9, EGFR Exon19Del/T790M (Homo sapiens, UniProt P00533, DEL746-750/T790M); assay: Inhibition of EGFR Exon19Del/T790M biochemical enzymatic activity (HTRF); conditions: EGFR Del19-T790M, 1 mM ATP, 1 h, room temperature, read-out: IC50 (nM) @Del19-T790M
T9 construct: purchased Carna Bio
Outline: as §1

[3] = BaF3 cells, EGFR DEL19-C797S, read-out: DEL19-C797S/BaF3 GI50
[4] = BaF3 cells, EGFR DEL19-T790-C797S, read-out: DEL19-T790-C797S/BaF3 GI50
[5] = BaF3 cells, EGFR L858R, read-out: L858R/BaF3 GI50
[6] = BaF3 cells, EGFR L858R-C797S, read-out: L858R-C797S/BaF3 GI50
[7] = BaF3 cells, EGFR L858R-T790-C797S, read-out: L858R-T790-C797S/BaF3 GI50
[8] = BaF3 cells, EGFR L858R-T790M, read-out: L858R-T790M/BaF3 GI50
[9] = EGFR DEL19-T790M, read-out: DEL19-T790M GI50
[10] = Homo sapiens, A-431, A-431 cells

T7 sequence (P00533 25-1210 C797S/L858R): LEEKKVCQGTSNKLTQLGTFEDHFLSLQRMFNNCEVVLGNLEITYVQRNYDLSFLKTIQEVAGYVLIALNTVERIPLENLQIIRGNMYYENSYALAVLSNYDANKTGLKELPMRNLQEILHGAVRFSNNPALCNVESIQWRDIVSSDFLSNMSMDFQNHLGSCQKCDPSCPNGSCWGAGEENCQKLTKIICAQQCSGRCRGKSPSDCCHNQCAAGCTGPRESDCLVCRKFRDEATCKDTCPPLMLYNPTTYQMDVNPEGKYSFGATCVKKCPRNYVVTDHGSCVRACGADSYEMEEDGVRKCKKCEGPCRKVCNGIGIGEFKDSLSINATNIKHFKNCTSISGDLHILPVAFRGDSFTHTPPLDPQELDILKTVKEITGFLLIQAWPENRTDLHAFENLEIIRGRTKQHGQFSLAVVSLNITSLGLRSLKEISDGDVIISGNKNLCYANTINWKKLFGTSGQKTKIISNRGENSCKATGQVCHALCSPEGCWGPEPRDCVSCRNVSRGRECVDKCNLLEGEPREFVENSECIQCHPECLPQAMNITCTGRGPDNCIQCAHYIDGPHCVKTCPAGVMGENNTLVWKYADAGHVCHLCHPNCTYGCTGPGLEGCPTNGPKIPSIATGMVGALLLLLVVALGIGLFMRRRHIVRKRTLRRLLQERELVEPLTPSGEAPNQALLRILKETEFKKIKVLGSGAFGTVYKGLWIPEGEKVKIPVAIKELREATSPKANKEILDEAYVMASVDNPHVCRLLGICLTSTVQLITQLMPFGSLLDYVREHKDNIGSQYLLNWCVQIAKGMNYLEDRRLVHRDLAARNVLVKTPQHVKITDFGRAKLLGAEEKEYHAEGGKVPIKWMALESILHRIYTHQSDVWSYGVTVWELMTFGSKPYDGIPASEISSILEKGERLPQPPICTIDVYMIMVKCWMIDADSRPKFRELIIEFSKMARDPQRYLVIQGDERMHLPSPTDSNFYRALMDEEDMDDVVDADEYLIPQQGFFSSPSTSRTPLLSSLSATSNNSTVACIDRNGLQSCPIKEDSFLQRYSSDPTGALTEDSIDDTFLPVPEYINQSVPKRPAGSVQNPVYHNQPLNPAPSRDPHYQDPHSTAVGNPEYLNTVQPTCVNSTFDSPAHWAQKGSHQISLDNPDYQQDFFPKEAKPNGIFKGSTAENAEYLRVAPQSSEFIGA
T8 sequence (P00533 with tags, fused parts or gaps DEL746-750 limits assumed): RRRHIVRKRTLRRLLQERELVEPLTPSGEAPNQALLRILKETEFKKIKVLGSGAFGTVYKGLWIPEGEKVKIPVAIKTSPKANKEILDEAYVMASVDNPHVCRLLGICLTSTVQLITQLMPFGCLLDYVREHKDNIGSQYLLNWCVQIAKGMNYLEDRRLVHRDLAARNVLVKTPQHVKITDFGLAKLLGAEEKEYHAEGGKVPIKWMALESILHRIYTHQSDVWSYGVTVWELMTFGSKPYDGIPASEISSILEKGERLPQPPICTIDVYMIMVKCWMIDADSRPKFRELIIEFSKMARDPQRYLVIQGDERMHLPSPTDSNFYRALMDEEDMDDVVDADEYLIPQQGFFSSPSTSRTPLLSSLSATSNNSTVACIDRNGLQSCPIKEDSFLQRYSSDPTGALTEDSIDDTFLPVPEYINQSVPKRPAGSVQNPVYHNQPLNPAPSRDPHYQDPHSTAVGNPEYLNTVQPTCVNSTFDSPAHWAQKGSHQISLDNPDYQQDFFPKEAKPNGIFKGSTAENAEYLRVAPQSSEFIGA
T3 sequence (P00533 25-1210 L858R): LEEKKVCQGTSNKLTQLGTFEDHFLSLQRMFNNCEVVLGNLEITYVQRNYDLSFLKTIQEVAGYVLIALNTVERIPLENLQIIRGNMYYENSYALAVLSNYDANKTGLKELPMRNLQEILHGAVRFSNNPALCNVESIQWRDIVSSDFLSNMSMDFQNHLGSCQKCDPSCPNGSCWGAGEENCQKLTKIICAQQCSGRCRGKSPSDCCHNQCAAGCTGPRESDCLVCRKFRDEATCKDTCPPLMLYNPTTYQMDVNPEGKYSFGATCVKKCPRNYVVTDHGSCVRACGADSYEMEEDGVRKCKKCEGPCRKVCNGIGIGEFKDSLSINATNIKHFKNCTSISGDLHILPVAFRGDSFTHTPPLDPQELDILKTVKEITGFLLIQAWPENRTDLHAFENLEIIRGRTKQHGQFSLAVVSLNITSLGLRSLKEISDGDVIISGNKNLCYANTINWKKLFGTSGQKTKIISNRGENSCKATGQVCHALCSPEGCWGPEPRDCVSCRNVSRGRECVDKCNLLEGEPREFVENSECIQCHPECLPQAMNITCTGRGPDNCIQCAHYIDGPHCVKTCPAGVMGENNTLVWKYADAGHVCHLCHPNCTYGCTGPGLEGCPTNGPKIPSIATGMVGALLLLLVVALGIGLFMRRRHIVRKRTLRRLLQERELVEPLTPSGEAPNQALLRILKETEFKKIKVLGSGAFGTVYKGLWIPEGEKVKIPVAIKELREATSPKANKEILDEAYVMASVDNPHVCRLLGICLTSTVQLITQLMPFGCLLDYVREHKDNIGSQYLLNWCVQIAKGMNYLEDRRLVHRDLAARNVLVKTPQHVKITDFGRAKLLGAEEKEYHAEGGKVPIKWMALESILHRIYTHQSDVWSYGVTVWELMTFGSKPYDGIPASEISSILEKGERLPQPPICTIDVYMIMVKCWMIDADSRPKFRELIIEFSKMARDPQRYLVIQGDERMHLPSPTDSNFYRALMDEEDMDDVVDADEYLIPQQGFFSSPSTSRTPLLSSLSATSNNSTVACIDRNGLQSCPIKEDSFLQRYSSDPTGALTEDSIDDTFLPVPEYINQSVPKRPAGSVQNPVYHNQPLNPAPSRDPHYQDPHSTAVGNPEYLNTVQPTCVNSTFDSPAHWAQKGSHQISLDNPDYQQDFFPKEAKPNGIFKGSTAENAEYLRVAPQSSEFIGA
T4 sequence (P00533 25-1210): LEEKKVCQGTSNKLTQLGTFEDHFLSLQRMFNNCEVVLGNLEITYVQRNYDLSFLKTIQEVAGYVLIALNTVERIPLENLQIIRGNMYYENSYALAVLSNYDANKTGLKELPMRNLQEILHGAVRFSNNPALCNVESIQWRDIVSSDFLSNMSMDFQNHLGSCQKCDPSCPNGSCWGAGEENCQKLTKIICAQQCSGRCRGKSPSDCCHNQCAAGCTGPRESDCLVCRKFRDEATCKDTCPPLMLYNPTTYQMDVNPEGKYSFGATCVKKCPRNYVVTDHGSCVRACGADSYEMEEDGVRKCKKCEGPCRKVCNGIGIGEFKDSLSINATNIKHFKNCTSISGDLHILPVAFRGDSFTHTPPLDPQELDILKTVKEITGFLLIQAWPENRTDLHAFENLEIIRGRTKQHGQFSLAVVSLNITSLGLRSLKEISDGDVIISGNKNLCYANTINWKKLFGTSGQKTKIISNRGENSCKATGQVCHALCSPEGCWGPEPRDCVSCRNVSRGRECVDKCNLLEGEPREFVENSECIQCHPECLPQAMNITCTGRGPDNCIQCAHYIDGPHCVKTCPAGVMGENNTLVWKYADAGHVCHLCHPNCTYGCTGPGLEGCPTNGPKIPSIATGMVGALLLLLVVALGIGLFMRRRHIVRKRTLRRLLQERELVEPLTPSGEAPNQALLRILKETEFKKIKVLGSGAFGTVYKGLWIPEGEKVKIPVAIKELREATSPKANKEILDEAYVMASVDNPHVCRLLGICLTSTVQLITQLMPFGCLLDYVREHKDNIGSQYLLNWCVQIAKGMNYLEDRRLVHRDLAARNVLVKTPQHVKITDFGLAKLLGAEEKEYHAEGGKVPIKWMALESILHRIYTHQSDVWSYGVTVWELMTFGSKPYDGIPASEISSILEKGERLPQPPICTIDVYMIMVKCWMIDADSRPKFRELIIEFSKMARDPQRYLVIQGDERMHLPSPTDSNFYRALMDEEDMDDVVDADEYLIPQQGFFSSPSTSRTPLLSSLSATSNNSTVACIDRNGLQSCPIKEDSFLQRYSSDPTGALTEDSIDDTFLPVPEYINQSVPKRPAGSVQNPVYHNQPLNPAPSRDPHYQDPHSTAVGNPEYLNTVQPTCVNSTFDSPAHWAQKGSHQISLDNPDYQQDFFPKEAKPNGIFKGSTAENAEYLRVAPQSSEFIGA
T5 sequence (P00533 with tags, fused parts or gaps DEL746-750/T790M/C797S limits assumed): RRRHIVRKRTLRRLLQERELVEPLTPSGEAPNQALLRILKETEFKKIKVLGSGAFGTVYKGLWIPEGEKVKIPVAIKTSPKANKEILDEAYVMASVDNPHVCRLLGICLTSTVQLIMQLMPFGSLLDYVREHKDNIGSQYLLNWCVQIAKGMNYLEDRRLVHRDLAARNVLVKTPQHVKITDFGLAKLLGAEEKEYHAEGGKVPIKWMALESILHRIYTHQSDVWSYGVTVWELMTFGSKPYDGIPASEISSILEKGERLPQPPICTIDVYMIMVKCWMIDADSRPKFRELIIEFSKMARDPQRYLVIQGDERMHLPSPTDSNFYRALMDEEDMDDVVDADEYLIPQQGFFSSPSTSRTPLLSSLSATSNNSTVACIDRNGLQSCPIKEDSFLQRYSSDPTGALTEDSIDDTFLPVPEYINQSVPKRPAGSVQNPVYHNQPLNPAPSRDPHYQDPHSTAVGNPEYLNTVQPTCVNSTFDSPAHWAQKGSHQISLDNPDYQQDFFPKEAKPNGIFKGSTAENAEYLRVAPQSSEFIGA

IC50 (EGFR[T790M/C797S/L858R]) [nM] | IC50 (EGFR (d746-750 C797S)) [nM] | IC50 (EGFR L858R) [nM] | IC50 (EGFR wild type) [nM] | IC50 [1] [nM] | GI50 (PC-9) [nM] | GI50 [2, 3] [nM] | GI50 [2, 4] [nM] | GI50 [2, 5] [nM] | GI50 [2, 6] [nM] | GI50 [2, 7] [nM] | GI50 [2, 8] [nM] | GI50 [2, 9] [nM] | IC50 (EGFR L858R/T790M) [nM] | IC50 (EGFR (C797S L858R)) [nM] | GI50 (A-431; [10]) [nM] | IC50 (EGFR Exon19Del) [nM] | IC50 (EGFR Exon19Del/T790M) [nM] | GI50 (A-431; A-431 cells) [nM] | Compound
> 5000 | 1390 | 4680 | > 5000 | > 5000 | 568 | 217 | 503 | 795 | 402 | 675 | 1000 | 473 | > 5000 | > 5000 | 1940 | 1280 | > 5000 | – | Cn1ncc2c1OCCN1CC3CCC(C3)(C1)n1c(nc3ccc(N4CCC(N5CCOCC5)C4)cc31)NC(=O)c1cc-2c(=O)n(C)c1 (single isomer, unassigned) [Example A104A]
6.6 | 4.5 | 53 | 937 | 5.9 | 21 | 0.74 | 6.8 | 12 | 8.2 | 12 | 19 | 6.9 | 13 | 33 | – | 6.1 | 8.5 | 1010 | Cn1ncc2c1OCCN1CC3CCC(C3)(C1)n1c(nc3ccc(N4CCC(N5CCOCC5)C4)cc31)NC(=O)c1cc-2c(=O)n(C)c1 (single isomer, unassigned) [Example A104B]
1.5 | 1 | 7.3 | 110 | 1.7 | 13 | 0.76 | 3.5 | 7.9 | 3.8 | 7 | 15 | 4.9 | 1.8 | 3.8 | 354 | 1.6 | 2.2 | – | CN1CC2CC1CN2c1ccc2nc3n(c2c1)C12CCC(CN(CCOc4c(cnn4C)-c4cc(cn(C)c4=O)C(=O)N3)C1)C2 (single isomer, unassigned) [Example A105B]
> 5000 | 446 | 1750 | > 5000 | 2820 | 418 | 113 | 322 | 268 | 143 | 316 | 392 | 355 | > 5000 | > 5000 | – | 594 | > 5000 | 2500 | CN1CCN(C2CCN(c3ccc4nc5n(c4c3)C34CCC(CN(CCOc6c(cnn6C)-c6cc(cn(C)c6=O)C(=O)N5)C3)C4)CC2)CC1 (single isomer, unassigned) [Example A106A]
1.4 | 1 | 1.8 | 4.1 | 2 | 7.6 | 0.79 | 1.4 | 1.1 | 2.2 | 3 | 1.1 | 1.9 | 2.2 | 2.2 | – | 1.2 | 2.2 | 732 | CN1CCN(C2CCN(c3ccc4nc5n(c4c3)C34CCC(CN(CCOc6c(cnn6C)-c6cc(cn(C)c6=O)C(=O)N5)C3)C4)CC2)CC1 (single isomer, unassigned) [Example A106B]
> 5000 | 245 | 770 | > 5000 | 2860 | 238 | 66 | 160 | 240 | 105 | 235 | 332 | 183 | > 5000 | 1040 | – | 267 | 4500 | 2420 | CCN1CCN(c2ccc3nc4n(c3c2)C23CCC(CN(CCOc5c(cnn5C)-c5cc(cn(C)c5=O)C(=O)N4)C2)C3)CC1 (single isomer, unassigned) [Example A107A]
2.1 | 0.79 | 3 | 20 | 2 | 5.2 | 0.63 | 1.1 | 1 | 2.4 | 1.5 | 4.1 | 1.5 | 2.7 | 1.9 | – | 1.8 | 1.8 | 267 | CCN1CCN(c2ccc3nc4n(c3c2)C23CCC(CN(CCOc5c(cnn5C)-c5cc(cn(C)c5=O)C(=O)N4)C2)C3)CC1 (single isomer, unassigned) [Example A107B]
> 5000 | 268 | 577 | > 5000 | 3170 | 320 | 84 | 204 | 202 | 123 | 223 | 369 | 227 | > 5000 | 942 | – | 293 | > 5000 | 1380 | CC(C)N1CCN(c2ccc3nc4n(c3c2)C23CCC(CN(CCOc5c(cnn5C)-c5cc(cn(C)c5=O)C(=O)N4)C2)C3)CC1 (single isomer, unassigned) [Example A108A]
1.1 | 0.77 | 1.9 | 7.7 | 1.4 | 4.6 | 0.67 | 1 | 1 | 1.1 | 1.2 | 3.9 | 1.3 | 1.3 | 1.5 | – | 1 | 1.7 | 320 | CC(C)N1CCN(c2ccc3nc4n(c3c2)C23CCC(CN(CCOc5c(cnn5C)-c5cc(cn(C)c5=O)C(=O)N4)C2)C3)CC1 (single isomer, unassigned) [Example A108B]
